Where a name gives a salt, the structure may show the parent alone.
Legend:
[1] = tested on: KYSE150 cells; parameters: method as in PMID 32850358; conditions: 10 µM MQ, KYSE150 oesophageal squamous cell carcinoma cell line; cited from earlier work
[2] = tested on: SH-SY5Y cells; assay: Cellular ATP bioluminescence assay (cellular bioenergetics); type: cell-based, human; conditions: for IC50: Homo sapiens
[3] = tested on: AChE of electric eel origin; parameters: method as in PMID 3878759; conditions: proposed non-competitive inhibitor; cited from earlier work
[4] = human, in vivo, cited from earlier work
[5] = tested on: SH-SY5Y cells; assay: Mitochondrial membrane potential (MMP) assay, MitoTracker Green FM; type: cell-based, human; conditions: 48 h exposure
[6] = molecular target: 5-hydroxytryptamine-3 (5-HT3) (serotonin) receptors; parameters: method as in PMID 17502851; conditions: non-competitive inhibitor; cited from earlier work
[7] = tested on: SH-SY5Y cells; assay: MTT assay of cell metabolic activity/viability; type: cell-based, human; conditions: for increase of cell metabolic activity (MTT): 6 h, p < 0.0001; for IC50: Homo sapiens, SH-SY5Y cells, non-linear regression
[8] = molecular target: human BuChE enzyme (Homo sapiens, UniProt P06276); assay: biochemical; type: biochemical
human BuChE enzyme, sequence (P06276 29-602): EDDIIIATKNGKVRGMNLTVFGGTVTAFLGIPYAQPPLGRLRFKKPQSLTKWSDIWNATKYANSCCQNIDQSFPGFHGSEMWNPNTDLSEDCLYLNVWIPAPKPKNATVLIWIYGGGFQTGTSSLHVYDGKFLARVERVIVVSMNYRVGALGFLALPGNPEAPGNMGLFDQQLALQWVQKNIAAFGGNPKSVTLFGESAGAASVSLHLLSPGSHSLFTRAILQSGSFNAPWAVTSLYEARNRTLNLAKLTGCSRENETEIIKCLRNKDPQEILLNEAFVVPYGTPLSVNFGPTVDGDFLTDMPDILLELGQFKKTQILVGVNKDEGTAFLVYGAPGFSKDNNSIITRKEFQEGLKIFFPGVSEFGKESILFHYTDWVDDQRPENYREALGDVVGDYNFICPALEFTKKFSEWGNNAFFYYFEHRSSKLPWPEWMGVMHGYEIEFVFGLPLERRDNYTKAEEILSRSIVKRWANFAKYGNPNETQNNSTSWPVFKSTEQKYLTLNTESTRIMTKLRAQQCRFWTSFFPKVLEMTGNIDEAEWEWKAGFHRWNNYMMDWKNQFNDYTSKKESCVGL

[9] = tested on: SH-SY5Y cells; assay: Flow cytometric assessment of cell death, Annexin V-FITC/PI; type: cell-based, human
[10] = molecular target: human AChE enzyme (recombinant) (Homo sapiens, UniProt P22303); assay: biochemical; type: biochemical
human AChE enzyme (recombinant), sequence (P22303 32-614): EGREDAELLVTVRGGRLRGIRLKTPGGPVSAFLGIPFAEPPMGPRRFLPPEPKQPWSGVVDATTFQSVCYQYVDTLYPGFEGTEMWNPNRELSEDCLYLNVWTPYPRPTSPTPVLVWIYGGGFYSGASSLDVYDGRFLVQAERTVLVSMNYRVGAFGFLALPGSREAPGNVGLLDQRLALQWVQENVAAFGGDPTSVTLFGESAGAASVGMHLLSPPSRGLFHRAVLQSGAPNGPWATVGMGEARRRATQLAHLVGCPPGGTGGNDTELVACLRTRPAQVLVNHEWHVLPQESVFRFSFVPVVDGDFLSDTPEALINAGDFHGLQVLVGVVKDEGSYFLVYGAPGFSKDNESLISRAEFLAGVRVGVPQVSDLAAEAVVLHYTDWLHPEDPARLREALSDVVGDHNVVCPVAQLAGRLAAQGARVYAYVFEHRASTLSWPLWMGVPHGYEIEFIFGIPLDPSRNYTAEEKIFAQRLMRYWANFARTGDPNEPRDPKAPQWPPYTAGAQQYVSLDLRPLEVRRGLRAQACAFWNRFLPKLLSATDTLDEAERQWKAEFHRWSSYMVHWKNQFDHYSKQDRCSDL

[11] = tested on: SH-SY5Y cells; parameters: method as in PMID 22465322; conditions: 10 µM MQ, 24 h; cited from earlier work
[12] = tested on: SH-SY5Y cells; assay: LDH cytotoxicity assay (extracellular LDH); type: cell-based, human; conditions: for IC50: Homo sapiens
[13] = tested on: human (recombinant) AChE; parameters: method as in PMID 16288931; conditions: 10 µM MQ; cited from earlier work
[14] = parameters: method as in PMID 21118921; conditions: healthy male and female volunteers; cited from earlier work
[15] = tested on: SH-SY5Y cells; assay: ROS generation, DCFDA assay; type: cell-based, human; conditions: 10 mM NAC with MQ 0.1–10 µM, 3 h
[16] = parameters: method as in PMID 32639233; conditions: overdose; cited from earlier work
[17] = SH-SY5Y cells, 6 h exposure, non-linear regression
[18] = SH-SY5Y cells, 24 h exposure, non-linear regression
[19] = SH-SY5Y cells, 48 h exposure, non-linear regression

O[C@H](c1cc(C(F)(F)F)nc2c(C(F)(F)F)cccc12)[C@@H]1CCCCN1 (racemic) [MQ, (R*,S*)-(+/−)-α-2-Piperidyl-2,8-bis(trifluoromethyl)quinoline-4-methanol monohydrochloride]
effect on cell number [1]: reduces the cell number
concentration from which cellular ATP is significantly reduced ([2]; 6 h exposure): ≥ 1 µM
concentration from which cellular ATP is significantly reduced ([2]; 48 h exposure): ≥ 0.1 µM
IC50 ([2]; SH-SY5Y, 24 h exposure): ~6 µM
IC50 [2, 17]: 10.2 µM
IC50 [2, 18]: 4.73 µM
IC50 [2, 19]: 3.19 µM
inhibition of electric eel AChE [3]: weak inhibitor
time of peak concentration in the blood ([4]; po): 7 to 24 h
terminal half-life [4]: 14 to 15 days
concentration at which the MMP is significantly altered [5]: 10 µM
IC50 [6]: ~10 µM
increase of cell metabolic activity (MTT) ([7]; 1 µM MQ): 27%
increase of cell metabolic activity (MTT) ([7]; 10 µM MQ): approximately 29%
reduction of cell metabolic activity (MTT) ([7]; 10 µM MQ, 48 h, p = 0.024): 13.6%
threshold concentration for significant reduction in viability ([7]; 48 h exposure): ~10 µM
IC50 ([7]; 6 h exposure): 67.1 µM
IC50 ([7]; 24 h exposure): 23.9 µM
IC50 ([7]; 48 h exposure): 14.2 µM
threshold concentration for toxicity to neuroblastoma cells (MTT) ([7]; all time points examined (6, 24, 48 h)): ≥ 25 µM
inhibition at 100 µM ([8]; 100 µM MQ): 18%
concentration from which BuChE activity is significantly reduced ([8]; MQ 1–100 µM assayed): ≥ 25 µM
reduction in BuChE enzymatic activity ([8]; MQ exposures of between 1 and 25 µM): approximately 10%
concentration at which increase in apoptotic cells reached significance ([9]; 6 h exposure): 50 µM
concentration at which increase in apoptotic cells reached significance ([9]; 24 h exposure): 20 µM
inhibition at 1 µM ([10]; 1 µM MQ): 9.8%
inhibition at 10 µM ([10]; 10 µM MQ, significant): 20.5%
concentration from which AChE activity is significantly reduced ([10]; MQ 1–100 µM assayed): ≥ 10 µM
reduction of cell viability (MTT) [11]: approximately 20%
extracellular LDH production ([12]; 0.1 to 10 µM MQ, except 10 µM after 48 h): no significant LDH production
extracellular LDH levels ([12]; 25, 50 and 100 µM MQ): dramatic increase
IC50 ([12]; SH-SY5Y, 24 h exposure): ~16 µM
IC50 [12, 17]: 26.2 µM
IC50 [12, 18]: 16.2 µM
IC50 [12, 19]: 11.7 µM
inhibition of human (recombinant) AChE [13]: < 10%

O[C@H](c1cc(C(F)(F)F)nc2c(C(F)(F)F)cccc12)[C@@H]1CCCCN1 (single isomer, unassigned) [+-MQ enantiomer]
safety and tolerability compared with the racemate [14]: more favourable profile for mood and sleep

CC(=O)N[C@@H](CS)C(=O)O [NAC, N-acetylcysteine]
effect of antioxidant co-treatment on MQ-induced ROS production [15]: significantly inhibited MQ-induced ROS production

CCN(CC)CCCC(C)Nc1ccnc2cc(Cl)ccc12 (stereo not drawn) [chloroquine]
whole blood concentration associated with 1% mortality [16]: 13.5 µM

Source: PMC10968448, “An In Silico and In Vitro Assessment of the Neurotoxicity of Mefloquine” (Biomedicines, 2024)
